According to US7041698B2, “Hepatitis C virus inhibitors” (Bristol-Myers Squibb Company, priority 2002, dated 2006):
Where two headings read alike, the source gives them in different places.

Columns and labels:
[1] = tested on: HCV replicon in Huh7 cells; assay: HCV replicon cell-based assay; design: species or system HCV strain 1B; conditions: Hepatitis C virus, Huh-7, 96 h, HCV replicon, 4 days, read-out: EC50 range
Procedure, shortened: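 Huh7 cells carrying a genotype 1b subgenomic replicon (NS3-NS5B, neo) treated 4 days at 37° C with compound (0.5% DMSO final). NS3 protease activity read in lysates with 10 μM FRET peptide (340/490 nm, kinetic), giving EC50. Confirmed by Taqman qRT-PCR of HCV RNA and a Renilla luciferase replicon.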

[2] = biological target: T1, HCV NS3/4A protease complex (UniProt P27958, C1454S/C1711G, species not given); assay: Recombinant HCV NS3/4A protease complex FRET peptide assay (strain not stated); format: biochemical
T1 construct: fused on or other part: Three-lysine solubilising tail at the C-terminus of NS4A

[3] = HCV NS3/4A protease enzyme assay, read-out: IC50 range
[4] = read-out: IC50 range, HCV NS3/4A protease enzyme assay

| SMILES | EC50 [1] [nM] | IC50 [2, 3] [nM] | IC50 [2, 4] [nM] |
| --- | --- | --- | --- |
| C=CC1C[C@]1(NC(=O)[C@@H]1C[C@@H](OC(=O)Nc2cccc(C(=O)OC)c2)CN1C(=O)[C@@H](NC(=O)OC(C)(C)C)C(C)(C)C)C(=O)NS(=O)(=O)C1CC1 (stereo partly drawn) [Compound 40, BocNH-P3(t-BuGly)-P2(Hyp(O—CO(NH—(3-benzoic acid methyl ester))))-P1(1R,2S VinylAcca)—CONHSO2Cyclopropane] | 1000 to 10000 | < 100 |  |
| C=CC1C[C@]1(NC(=O)[C@@H]1C[C@@H](OC(=O)Nc2ccc(OC)cc2[N+](=O)[O-])CN1C(=O)[C@@H](NC(=O)OC(C)(C)C)C(C)(C)C)C(=O)NS(=O)(=O)C1CC1 (stereo partly drawn) [Compound 41, BocNH-P3(t-BuGly)-P2(Hyp(O—CO(NH—(4-Methoxy-2-nitro-phenyl))))-P1(1R,2S VinylAcca)—CONHSO2Cyclopropane] | 1000 to 10000 | < 100 |  |
| C=CC1C[C@]1(NC(=O)[C@@H]1C[C@@H](OC(=O)Nc2cccc(C)c2C)CN1C(=O)[C@@H](NC(=O)OC(C)(C)C)C(C)(C)C)C(=O)NS(=O)(=O)C1CC1 (stereo partly drawn) [Compound 42, BocNH-P3(t-BuGly)-P2(Hyp(O—CO(NH—(2,3-Dimethyl-phenyl))))-P1(1R,2S VinylAcca)—CONHSO2Cyclopropane] | 1000 to 10000 | < 100 |  |
| C=CC1C[C@]1(NC(=O)[C@@H]1C[C@@H](OC(=O)N(C)C)CN1C(=O)[C@@H](NC(=O)OC(C)(C)C)C(C)(C)C)C(=O)NS(=O)(=O)C1CC1 (stereo partly drawn) [Compound 43, BocNH-P3(t-BuGly)-P2(Hyp(O—CO(N,N-dimethyl)))-P1(1R,2S VinylAcca)—CONHSO2Cyclopropane] | > 10000 |  | 100 to 1000 |
| C=CC1C[C@]1(NC(=O)[C@@H]1C[C@@H](OC(=O)N(CC)CC)CN1C(=O)[C@@H](NC(=O)OC(C)(C)C)C(C)(C)C)C(=O)NS(=O)(=O)C1CC1 (stereo partly drawn) [Compound 44, BocNH-P3(t-BuGly)-P2(Hyp(O—CO(N,N-diethyl)))-P1(1R,2S VinylAcca)—CONHSO2Cyclopropane] | 1000 to 10000 |  | < 100 |
| C=CC1C[C@]1(NC(=O)[C@@H]1C[C@@H](OC(=O)N(C(C)C)C(C)C)CN1C(=O)[C@@H](NC(=O)OC(C)(C)C)C(C)(C)C)C(=O)NS(=O)(=O)C1CC1 (stereo partly drawn) [Compound 45, BocNH-P3(t-BuGly)-P2(Hyp(O—CO(N,N-diisopropyl)))-P1(1R,2S VinylAcca)—CONHSO2Cyclopropane] | 100 to 1000 |  | < 100 |
| C=CC1C[C@]1(NC(=O)[C@@H]1C[C@@H](OC(=O)N(CCCC)CCCC)CN1C(=O)[C@@H](NC(=O)OC(C)(C)C)C(C)(C)C)C(=O)NS(=O)(=O)C1CC1 (stereo partly drawn) [Compound 46, BocNH-P3(t-BuGly)-P2(Hyp(O—CO(N,N-dibutyl)))-P1(1R,2S VinylAcca)—CONHSO2Cyclopropane] | 1000 to 10000 | 100 to 1000 |  |
| C=CC1C[C@]1(NC(=O)[C@@H]1C[C@@H](OC(=O)Nc2cccc(C(C)=O)c2)CN1C(=O)[C@@H](NC(=O)OC(C)(C)C)C(C)(C)C)C(=O)NS(=O)(=O)C1CC1 (stereo partly drawn) [Compound 47, BocNH-P3(t-BuGly)-P2(Hyp(O—CO(NH—(3-acetyl-phenyl))))-P1(1R,2S VinylAcca)—CONHSO2Cyclopropane] | > 10000 | 100 to 1000 |  |
| C=CC1C[C@]1(NC(=O)[C@@H]1C[C@@H](OC(=O)Nc2ccccc2C(=O)OC(C)C)CN1C(=O)[C@@H](NC(=O)OC(C)(C)C)C(C)(C)C)C(=O)NS(=O)(=O)C1CC1 (stereo partly drawn) [Compound 48, BocNH-P3(t-BuGly)-P2(Hyp(O—CO(NH—(2-benzoic acid isopropyl ester))))-P1(1R,2S VinylAcca)—CONHSO2Cyclopropane] | 100 to 1000 | < 100 |  |
| C=CC1C[C@]1(NC(=O)[C@@H]1C[C@@H](OC(=O)Nc2sc3c(c2C(=O)OCC)CCCC3)CN1C(=O)[C@@H](NC(=O)OC(C)(C)C)C(C)(C)C)C(=O)NS(=O)(=O)C1CC1 (stereo partly drawn) [Compound 49, BocNH-P3(t-BuGly)-P2(Hyp(O—CO(NH-2-(4,5,6,7-tetrahydro-benzo[b]thiophene-3-carboxylic acid ethyl ester))))-P1(1R,2S VinylAcca)—CONHSO2Cyclopropane] | 1000 to 10000 | 100 to 1000 |  |
| C=CC1C[C@]1(NC(=O)[C@@H]1C[C@@H](OC(=O)Nc2cc(C)cc(C)c2)CN1C(=O)[C@@H](NC(=O)OC(C)(C)C)C(C)(C)C)C(=O)NS(=O)(=O)C1CC1 (stereo partly drawn) [Compound 50, BocNH-P3(t-BuGly)-P2(Hyp(O—CO(NH—(3,5-dimethyl-phenyl))))-P1(1R,2S VinylAcca)—CONHSO2Cyclopropane] | 1000 to 10000 | < 100 |  |
| C=CC1C[C@]1(NC(=O)[C@@H]1C[C@@H](OC(=O)Nc2ccccc2F)CN1C(=O)[C@@H](NC(=O)OC(C)(C)C)C(C)(C)C)C(=O)NS(=O)(=O)C1CC1 (stereo partly drawn) [Compound 51, BocNH-P3(t-BuGly)-P2(Hyp(O—CO(NH—(2-fluoro-phenyl))))-P1(1R,2S VinylAcca)—CONHSO2Cyclopropane] | 1000 to 10000 | 100 to 1000 |  |
| C=CC1C[C@]1(NC(=O)[C@@H]1C[C@@H](OC(=O)Nc2c(F)cccc2F)CN1C(=O)[C@@H](NC(=O)OC(C)(C)C)C(C)(C)C)C(=O)NS(=O)(=O)C1CC1 (stereo partly drawn) [Compound 52, BocNH-P3(t-BuGly)-P2(Hyp(O—CO(NH—(2,6-difluorophenyl))))-P1(1R,2S VinylAcca)—CONHSO2Cyclopropane] | > 10000 | 100 to 1000 |  |
| C=CC1C[C@]1(NC(=O)[C@@H]1C[C@@H](OC(=O)Nc2ccccc2Cl)CN1C(=O)[C@@H](NC(=O)OC(C)(C)C)C(C)(C)C)C(=O)NS(=O)(=O)C1CC1 (stereo partly drawn) [Compound 53, BocNH-P3(t-BuGly)-P2(Hyp(O—CO(NH—(2-chloro-phenyl))))-P1(1R,2S VinylAcca)—CONHSO2Cyclopropane] | 1000 to 10000 | < 100 |  |
| C=CC1C[C@]1(NC(=O)[C@@H]1C[C@@H](OC(=O)Nc2c(Cl)cccc2Cl)CN1C(=O)[C@@H](NC(=O)OC(C)(C)C)C(C)(C)C)C(=O)NS(=O)(=O)C1CC1 (stereo partly drawn) [Compound 54, BocNH-P3(t-BuGly)-P2(Hyp(O—CO(NH—(2,6-dichloro-phenyl))))-P1(1R,2S VinylAcca)—CONHSO2Cyclopropane] | 1000 to 10000 | 100 to 1000 |  |
| C=CC1C[C@]1(NC(=O)[C@@H]1C[C@@H](OC(=O)Nc2ccccc2OC)CN1C(=O)[C@@H](NC(=O)OC(C)(C)C)C(C)(C)C)C(=O)NS(=O)(=O)C1CC1 (stereo partly drawn) [Compound 55, BocNH-P3(t-BuGly)-P2(Hyp(O—CO(NH—(2-methoxy-phenyl))))-P1(1R,2S VinylAcca)—CONHSO2Cyclopropane] | 100 to 1000 | < 100 |  |
| C=CC1C[C@]1(NC(=O)[C@@H]1C[C@@H](OC(=O)Nc2ccccc2OCC)CN1C(=O)[C@@H](NC(=O)OC(C)(C)C)C(C)(C)C)C(=O)NS(=O)(=O)C1CC1 (stereo partly drawn) [Compound 56, BocNH-P3(t-BuGly)-P2(Hyp(O—CO(NH—(2-ethoxy-phenyl))))-P1(1R,2S VinylAcca)—CONHSO2Cyclopropane] | 100 to 1000 | < 100 |  |
| C=CC1C[C@]1(NC(=O)[C@@H]1C[C@@H](OC(=O)Nc2ccccc2C)CN1C(=O)[C@@H](NC(=O)OC(C)(C)C)C(C)(C)C)C(=O)NS(=O)(=O)C1CC1 (some centres unmarked) [Compound 57] | 1000 to 10000 | 100 to 1000 |  |
| C=CC1C[C@]1(NC(=O)[C@@H]1C[C@@H](OC(=O)Nc2ccccc2CC)CN1C(=O)[C@@H](NC(=O)OC(C)(C)C)C(C)(C)C)C(=O)NS(=O)(=O)C1CC1 (stereo partly drawn) [Compound 59, BocNH-P3(t-BuGly)-P2(Hyp(O—CO(NH—(2-ethyl-phenyl))))-P1(1R,2S VinylAcca)—CONHSO2Cyclopropane] | 1000 to 10000 | 100 to 1000 |  |
| C=CC1C[C@]1(NC(=O)[C@@H]1C[C@@H](OC(=O)Nc2ccccc2[N+](=O)[O-])CN1C(=O)[C@@H](NC(=O)OC(C)(C)C)C(C)(C)C)C(=O)NS(=O)(=O)C1CC1 (stereo partly drawn) [Compound 60, BocNH-P3(t-BuGly)-P2(Hyp(O—CO(NH—(2-nitro-phenyl))))-P1(1R,2S VinylAcca)—CONHSO2Cyclopropane] | 100 to 1000 | < 100 |  |
| C=CC1C[C@]1(NC(=O)[C@@H]1C[C@@H](OC(=O)Nc2c(C)cccc2Cl)CN1C(=O)[C@@H](NC(=O)OC(C)(C)C)C(C)(C)C)C(=O)NS(=O)(=O)C1CC1 (stereo partly drawn) [Compound 63, BocNH-P3(t-BuGly)-P2(Hyp(O—CO(NH—(2-chloro-6-methyl))))-P1(1R,2S VinylAcca)—CONHSO2Cyclopropane] | 1000 to 10000 | 100 to 1000 |  |
| C=CC1C[C@]1(NC(=O)[C@@H]1C[C@@H](OC(=O)Nc2ccccc2C(=O)OCCCC)CN1C(=O)[C@@H](NC(=O)OC(C)(C)C)C(C)(C)C)C(=O)NS(=O)(=O)C1CC1 (stereo partly drawn) [Compound 64, BocNH-P3(t-BuGly)-P2(Hyp(O—CO(NH—(2-benzoic acid butyl ester))))-P1(1R,2S VinylAcca)—CONHSO2Cyclopropane] | 100 to 1000 | < 100 |  |
| C=CC1C[C@]1(NC(=O)[C@@H]1C[C@@H](OC(=O)Nc2ccccc2I)CN1C(=O)[C@@H](NC(=O)OC(C)(C)C)C(C)(C)C)C(=O)NS(=O)(=O)C1CC1 (stereo partly drawn) [Compound 65, BocNH-P3(t-BuGly)-P2(Hyp(O—CO(NH—(2-iodo-phenyl))))-P1(1R,2S VinylAcca)—CONHSO2Cyclopropane] | 100 to 1000 | < 100 |  |
| C=CC1C[C@]1(NC(=O)[C@@H]1C[C@@H](OC(=O)Nc2ccccc2CCC)CN1C(=O)[C@@H](NC(=O)OC(C)(C)C)C(C)(C)C)C(=O)NS(=O)(=O)C1CC1 (stereo partly drawn) [Compound 66, BocNH-P3(t-BuGly)-P2(Hyp(O—CO(NH—(2-propyl-phenyl))))-P1(1R,2S VinylAcca)—CONHSO2Cyclopropane] | 1000 to 10000 | < 100 |  |
| C=CC1C[C@]1(NC(=O)[C@@H]1C[C@@H](OC(=O)Nc2ccccc2Oc2ccccc2)CN1C(=O)[C@@H](NC(=O)OC(C)(C)C)C(C)(C)C)C(=O)NS(=O)(=O)C1CC1 (stereo partly drawn) [Compound 67, BocNH-P3(t-BuGly)-P2(Hyp(O—CO(NH—(2-phenoxy-phenyl))))-P1(1R,2S VinylAcca)—CONHSO2Cyclopropane] | 100 to 1000 | < 100 |  |
